Assay results reported in publication PMC4685742 (Nature chemical biology, 2015).

Legend:
iridoid synthase (CrISY) [1] = molecular target: T1, iridoid synthase (CrISY) (Catharanthus roseus, UniProt K7WDL7, D87N); test: co-crystal structure at […] Å; assay type: biochemical
[2] = molecular target: T2, iridoid synthase (CrISY) G150A (Catharanthus roseus, UniProt K7WDL7, D87N/G150A); test: co-crystal structure; assay type: binding
T2 sequence (K7WDL7 23-388 D87N/G150A): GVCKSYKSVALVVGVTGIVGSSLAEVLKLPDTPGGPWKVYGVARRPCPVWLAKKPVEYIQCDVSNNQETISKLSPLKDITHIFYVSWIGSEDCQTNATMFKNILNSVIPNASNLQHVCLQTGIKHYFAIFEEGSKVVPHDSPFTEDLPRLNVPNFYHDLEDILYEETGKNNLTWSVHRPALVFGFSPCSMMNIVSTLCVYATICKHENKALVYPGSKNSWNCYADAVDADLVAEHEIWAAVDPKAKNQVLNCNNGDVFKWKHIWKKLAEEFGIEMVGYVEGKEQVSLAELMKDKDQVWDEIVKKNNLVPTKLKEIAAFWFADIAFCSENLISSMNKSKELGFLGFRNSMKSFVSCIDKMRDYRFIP

iridoid synthase (CrISY) [3] = molecular target: T1, iridoid synthase (CrISY); test: co-crystal structure at […] Å; assay type: binding

T1 sequence (K7WDL7 23-388 D87N): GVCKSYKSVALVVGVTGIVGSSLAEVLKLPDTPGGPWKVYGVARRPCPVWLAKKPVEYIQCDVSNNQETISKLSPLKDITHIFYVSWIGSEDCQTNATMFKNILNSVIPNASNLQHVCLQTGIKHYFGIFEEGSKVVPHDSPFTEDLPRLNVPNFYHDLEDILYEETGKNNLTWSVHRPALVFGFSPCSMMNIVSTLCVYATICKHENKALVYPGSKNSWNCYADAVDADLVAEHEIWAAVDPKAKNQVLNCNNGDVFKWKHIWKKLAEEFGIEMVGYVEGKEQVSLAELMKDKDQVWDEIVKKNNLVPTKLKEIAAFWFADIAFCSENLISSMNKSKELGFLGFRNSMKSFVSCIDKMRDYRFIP

## CC(C)=CCC/C(C)=C/C(=O)O [GEA, geranic acid]
Iridoid synthase (CrISY) [1]
  Ki: ~4 µM

## NC(=O)c1ccc[n+]([C@@H]2O[C@H](COP(=O)(O)OP(=O)(O)OC[C@H]3O[C@@H](n4cnc5c(N)ncnc54)[C@H](OP(=O)(O)O)[C@@H]3O)[C@@H](O)[C@H]2O)c1 [NADP+]
[2]
  co-crystal structure: The structure of CrISY^G150A was solved with NADP^+ bound (PDB code 5DCY)
Iridoid synthase (CrISY) [3]
  co-crystal structure at 1.40 Å: CrISY’s structure was solved in its apo form and with NADP^+ bound (PDB codes 5DCW and 5DCU, respectively)
